Reference: patent US12583884B2, “3beta-(benzyloxy)-17alpha-methyl-pregn-5-en-20-one for use in the treatment of cognitive disorders” (AELIS FARMA, priority 2018, dated 2026)

Columns and labels:
[1] = Anxiety-like behaviors in the elevated plus maze; type: in vivo, mouse
Description: The EPM apparatus was made of grey polyvinyl chloride and consisted of four elevated arms. The arms (height, 60 cm; length, 37 cm; width, 6 cm; each) were arranged in a cross-like disposition, with two opposite arms being enclosed by walls and the two other arms being open. A video camera placed on the top of the maze and connected to a tracking system allowed the automatic scoring of the locomotion of the mice in the maze. The light intensity of the maze was set at 45 lux in the open arms. One mouse was placed in the center of the EPM and was then free to explore the entire maze for 5 minutes. The time spent and the number of entries into the open arms and closed arms were measured. A decrease in the percentages of visits and/or of the time spent in open arms reflects an increase in anxiety levels.
Rimonabant was dissolved in a vehicle containing DMSO, (2%), Tween80 (2%) in injectable NaCl 0.9%. Within the same study, the effect of intraperitoneal injection of rimonabant at 10 mg/kg or of vehicle alone (10 ml/kg) was studied in the EPM in 2-month-old male C57B1/6J mice (n=10 per group). The EPM test was performed 30 minutes after rimonabant injection.

[2] = Beyer et al., 2010; Patel and Hillard, 2006; cited from earlier work
[3] = Depressive-like behaviors in the sucrose preference test; type: in vivo, mouse
Experimental: Sucrose preference was tested in the home cages of the mice. A sucrose solution containing 2% of sucrose (D(+) saccharose) in tap water was poured in plastic graduated bottles (volume in each bottle, 45 ml). Identical bottles were filled with tap water. All the mice were first habituated to the bottles and to the sucrose solution. One bottle containing water and one bottle containing sucrose were placed in the hopper of each home cage. […] The mice had access to the solutions from the beginning of the dark phase, at the daily peak of food and water consumption (from 7 pm to 8.30 am). The sucrose preference test was performed seven days later. Water and sucrose solutions were presented as described for habituation except that mice had access to the solutions from 12 pm to 10 pm. At each time point, the bottles were weighed, 1 g corresponding to 1 ml. The intake volume was calculated by subtracting the initial bottle weight to the final bottle weight.
15 or 30 mg/kg or of vehicle (corn oil; 5 ml/kg) was studied in the sucrose preference test in 2-month-old male C57B1/6J mice (n=7-8 per group). Rimonabant was dissolved in a vehicle containing dimethylsulfoxide (DMSO, 2%), Tween80 (2%) in injectable NaCl 0.9%. Within the same study, the effect of repeated intraperitoneal injections of rimonabant at 10 mg/kg or of vehicle alone (10 ml/kg) was studied in the sucrose preference test in 2-month-old male C57B1/6J mice (n=8 per group).

[4] = test system: primary culture of rat hepatocytes; test: Biliary function: bile canaliculi in primary hepatocytes
Experimental: (§1) The percentage of cytolysed hepatocytes over time was determined by time lapse imaging with a fluorescent cytolysis marker. The number of bile canaliculi after 48 hours of treatment was determined using a fluorescent bile salt analog.
(§2) Primary rat hepatocytes from 10-12 weeks old Wistar rats were isolated using a two-step collagenase perfusion method. After 24 hours, cells were covered with a layer of Matrigel to perform a sandwich configuration culture. […] Cells were then stained using a fluorescent bile salt analog to measure the bile canaliculi network state and the Bsep pump activity. Acetaminophen (30 mM) and Cyclosporin A (1 μM) were added as positive controls of hepatotoxicity and biliary canaliculi loss, respectively.

HeLa cells = test: Genotoxicity: Histone H2AX phosphorylation; conditions: 100 μM; 24 hours
Experimental: This study aimed at measuring Histone H2AX phosphorylation (γH2AX), which is the cellular response to DNA damage resulting in double-stranded DNA breaks. […] Etoposide at 3 μM was added as positive control of genotoxic effects. An immunofluorescence was performed on treated cells with a specific antibody against the phosphorylated histone gH2AX. Nuclei were stained with a fluorescent DNA intercaling agent. The stained cells were imaged and analyzed on the BD Pathway 855 imager®.

[5] = Food intake of standard chow in lean mice; conditions: acute 10 mg/kg ip; first 3 hours after light-off; male C57BL/6J
Experimental: Spontaneous intake of standard chow in mice was evaluated during the dark phase of the light-dark cycle. The amount of food eaten was measured at light-off, 3 hours and 13 hours after light-off.

[6] = therapeutic dose for the treatment of obesity; Zavatti et al., 2011; EPAR; cited from earlier work
[7] = Body weight of lean mice, repeated administrations
Description: Mice were weighed prior to drug administration every day at the first week of treatment and then four days per week.

[8] = test system: primary culture of rat cortical neurons; test: Neurotoxicity in primary culture of cortical neurons; type: cell-based; conditions: from 30 μM
Experimental: Cells were then followed by time-lapse imaging during 72 hours. The cells were then permeabilized. This procedure allowed to express the cytolysis over time as a percentage of the total number of cells per well.

[9] = test system: primary culture of rat hepatocytes; test: Hepatotoxicity in primary culture of hepatocytes; type: cell-based
Experimental: as §1, §2

[10] = reference ID100 for rimonabant effects = 10 mg/kg

Compound: Cc1c(C(=O)NN2CCCCC2)nn(-c2ccc(Cl)cc2Cl)c1-c1ccc(Cl)cc1 [rimonabant]
- Time spent and number of visits in the open arms ([1]; acute 10 mg/kg ip, 30 minutes after injection): markedly reduced the time spent and the number of visits in the open arms
- ID100: increase in anxiety-like behaviors ([1]; male mice): 10 mg/kg
- Effect: increase in anxiety-like behaviors (acute administration) ([1]; male mice, rimonabant 10 mg/kg): Yes
- N fold ID100: increase in anxiety-like behaviors [1, 10]: 1
- Doses with similar effects (anhedonia, anxiety-like behaviors) in rodents [2]: ≥ 1 mg/kg
- Sucrose consumption ([3]; 10 mg/kg ip once a day, 28 days): reduced by half sucrose consumption
- ID100: increase in depression-related behaviors ([3]; male mice): 10 mg/kg
- Effect: increase in depression-related behaviors (repeated administration) ([3]; male mice, rimonabant 10 mg/kg): Yes
- N fold ID100: increase in depression-related behaviors [3, 10]: 1
- Effect on bile canaliculi ([4]; from 10 μM): suppressed bile canaliculi
- Concentration decreasing the number of canaliculi ([4]; tested 0.1 to 100 μM, 48 hours): ≥ 1000 nM
- Genotoxicity (DNA damage) (HeLa cells): induced DNA damage
- Food intake [5]: significantly decreased food intake
- Doses inducing scratching, hyperactivity followed by sedation and convulsions [6]: 6 times the therapeutic dose
- Body weight ([7]; 10 mg/kg ip once a day, 40 days): decreased body weight
- ID100: inhibition of food-intake and body weight ([7]; male mice): 10 mg/kg
- Effect: inhibition of food-intake and body weight (repeated administration) ([7]; male mice, rimonabant 10 mg/kg): Yes
- N fold ID100: inhibition of food-intake and body weight [7, 10]: 1
- Neural cell death [8]: 80%
- Hepatocyte death ([9]; from 10 μM): 100%
- Concentration increasing hepatocyte cell death ([9]; tested 0.1 to 100 μM, 48 hours): ≥ 3000 nM
